Laboratory results from PubChem BioAssay (NCI).
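Where inhibition never reached the appropriate level, the endpoint shown equals the highest concentration tested. Otherwise, values were interpolated linearly from a five-concentration, 48-hour dose response in 96-well plates. GI50 is the concentration that inhibits growth by half. TGI denotes the concentration required for complete inhibition of growth.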

Columns and labels:
Test in all cases: DTP human tumour cell line panel, 48 h; in the data active means GI50 below about 0.43 µM; inactive means the rest
HT29 colon = system: HT29 colon
NCI-H522 lung = system: NCI-H522 lung
U251 CNS = system: U251 CNS
SN12C renal = system: SN12C renal
HCT-15 colon = system: HCT-15 colon
SNB-75 CNS = system: SNB-75 CNS
HCT-116 colon = system: HCT-116 colon
UACC-257 melanoma = system: UACC-257 melanoma
K-562 leukemia = system: K-562 leukemia
SK-OV-3 ovarian = system: SK-OV-3 ovarian
TK-10 renal = system: TK-10 renal
OVCAR-5 ovarian = system: OVCAR-5 ovarian
SK-MEL-28 melanoma = system: SK-MEL-28 melanoma
IGROV1 ovarian = system: IGROV1 ovarian
RPMI-8226 leukemia = system: RPMI-8226 leukemia
CCRF-CEM leukemia = system: CCRF-CEM leukemia
HOP-92 NSCLC = system: HOP-92 NSCLC
SK-MEL-5 melanoma = system: SK-MEL-5 melanoma
A549 NSCLC = system: A549 NSCLC
SF-539 CNS = system: SF-539 CNS
MCF7 breast = system: MCF7 breast
NCI/ADR-RES ovarian = system: NCI/ADR-RES ovarian
OVCAR-8 ovarian = system: OVCAR-8 ovarian
NCI-H23 lung = system: NCI-H23 lung
ACHN renal = system: ACHN renal
A498 renal = system: A498 renal
786-0 renal = system: 786-0 renal
KM12 colon = system: KM12 colon
HOP-62 NSCLC = system: HOP-62 NSCLC

CS(=O)(=O)c1ccc2c(c1)c1c(n2C(=O)c2ccc(Cl)cc2)CCCC1
2.57 µM: TGI (NCI-H522 lung)
> 100 µM: TGI (U251 CNS) | TGI (SN12C renal) | TGI (HCT-15 colon) | TGI (HCT-116 colon) | TGI (UACC-257 melanoma) | TGI (K-562 leukemia) | TGI (SK-OV-3 ovarian) | TGI (TK-10 renal) | TGI (OVCAR-5 ovarian) | TGI (SK-MEL-28 melanoma) | TGI (IGROV1 ovarian) | TGI (RPMI-8226 leukemia) | TGI (CCRF-CEM leukemia) | TGI (HOP-92 NSCLC) | TGI (SK-MEL-5 melanoma) | TGI (A549 NSCLC) | TGI (MCF7 breast) | TGI (NCI/ADR-RES ovarian) | TGI (OVCAR-8 ovarian) | TGI (NCI-H23 lung) | TGI (ACHN renal) | TGI (A498 renal) | TGI (786-0 renal) | TGI (KM12 colon) | TGI (HOP-62 NSCLC)
inactive: GI50 (HT29 colon) 4.34 µM | GI50 (NCI-H522 lung) 0.717 µM | GI50 (U251 CNS) 3.41 µM | GI50 (SN12C renal) 3.43 µM | GI50 (HCT-15 colon) 1.32 µM | GI50 (SNB-75 CNS) 5.05 µM | GI50 (HCT-116 colon) 1.27 µM | GI50 (UACC-257 melanoma) > 100 µM | GI50 (K-562 leukemia) 1.31 µM | GI50 (SK-OV-3 ovarian) 22.1 µM | GI50 (TK-10 renal) > 100 µM | GI50 (OVCAR-5 ovarian) 19.8 µM | GI50 (SK-MEL-28 melanoma) 2.97 µM | GI50 (IGROV1 ovarian) 3.34 µM | GI50 (RPMI-8226 leukemia) 4.6 µM | GI50 (CCRF-CEM leukemia) 2.05 µM | GI50 (HOP-92 NSCLC) 2.63 µM | GI50 (SK-MEL-5 melanoma) 2.45 µM | GI50 (A549 NSCLC) 13.5 µM | GI50 (SF-539 CNS) 6.31 µM | GI50 (MCF7 breast) 1.08 µM | GI50 (NCI/ADR-RES ovarian) 1.4 µM | GI50 (OVCAR-8 ovarian) 6.49 µM | GI50 (NCI-H23 lung) 28.2 µM | GI50 (ACHN renal) 5.1 µM | GI50 (A498 renal) > 100 µM | GI50 (786-0 renal) 3.4 µM | GI50 (KM12 colon) 1.59 µM | GI50 (HOP-62 NSCLC) 4.48 µM
35 µM: TGI (SF-539 CNS)
64.9 µM: TGI (SNB-75 CNS)
67.4 µM: TGI (HT29 colon)
